Experimental data published in patent US9234025B2, “Extracellular allosteric inhibitor binding domain from a tyrosine kinase receptor” (SANOFI, priority 2009, dated 2016).

What was measured:
FGFR2 = experiment: FRS2, Erk1/2 and PLCγ phosphorylation in FGFR2-transfected HEK293 cells (western blot); type: cell-based, human; conditions: compound at 1 μM
Experimental: HEK293 cells were either transiently of stably transfected (using FuGENE 6, Roche) with hFGFR2IIIca or hFGFR2IIIca-Y328D cloned in pcDNA3 (Invitrogen). Stably transfected cells were grown in G418 (400 μg/ml) containing medium. Before stimulation, the cells were starved overnight in DMEM (0% serum), and pre-incubated with […] at the required concentration. The cells were subsequently stimulated with FGF2 (concentration between 0.5-10 ng/ml) for 5 min at 37° C. with or without SSR or SU5402 at 1 μM. After washing with ice-cold phosphate-buffered saline containing phosphatase inhibitors (Roche), cells were lysed in RIPA buffer (Tris 30 mM HCl pH 7.5, 150 mM NaCl, 1 mM EDTA, 1% triton-X, 0.5% w/v deoxycholate, containing phophatase and protease inhibitors as described by the manufacturer (Roche)). Cell lysates were centrifuged at 12,000 g for 10 min, and the supernatants were collected. Proteins were separated on Novex polyacrylamide gels (Invitrogen, Carlsbad, Calif.) and subsequently transferred onto Hybond ECL nitrocellulose membranes (Amersham Pharmacia). Following incubation with 5% non-fat milk powder in PBS, the membranes were incubated overnight at 4° C. with the following antibodies: phospho-ERK1/2 (CST:9101), phospho-FRS2 (CST:3861), phospho-PLCγ (CST:2821) and FGFR2 (F0300, Sigma).
In order to evaluate SSR effect on FGFR-controlled phosphor-signalling, HEK293 cells have been transfected with FGFR2 and the two main pathways following FGFR autophosphorylation, PLCγ and FRS2, have been studied by western blot in comparison with a published FGFR tyrosine kinase inhibitor SU5402 described to inhibit FGFR-dependent FRS2 and PLCγ cascades (Zhen et al., Oncogene 2007). In such cells, FGF induces FRS2, Erk1/2 and PLCγ phosphorylation. […] More generally, these differences in phosphorylation can be used as reporter to evaluate allosteric modulators.

FGFR2^∂123 = biological target: T1, FGFR2^∂123 (Homo sapiens, UniProt P21802); experiment: anisotropy measurement, FGF1-lumio binding to FGFR2 ECD without Fc-tag; conditions: >1,000 fold molar excess of SSR; FGF1-lumio 1 μM
T1 construct: we purified the entire extracellular domain of FGFR2 without Fc-tag (FGFR2^∂123); made in house
Experimental: To assess whether SSR inhibits the binding of FGF1 to its binding pocket, we purified the entire extracellular domain of FGFR2 without Fc-tag (FGFR2^∂123) and measured the tumbling speed (as a parameter of anisotropy) of a fluorescent lumio-tagged FGF1 (FGF1-lumio; constant concentration of 1 μM) in the presence of varying concentrations of FGFR2^∂123 without (blue) or with (red) SSR (1 mM). When FGFR2^∂123 was added to FGF1-lumio, the tumbling speed of the ligand/receptor complex was slower than of FGF-lumio alone, because of its larger size.
One hallmark of allosteric interactions is the phenomenon of ‘probe-dependence’ i.e., variations in the magnitude and direction of an allosteric interaction depending on the nature of the orthosteric ligand-receptor complex with which the modulator is interacting (May et al., 2007). To determine whether the effects of SSR on ^125I-FGF2 binding in the SPA were dependent on the configuration of the engineered FGFR/Fc fusion protein plated on an artificial substrate, we next studied whether SSR inhibited the binding of a fluorescent lumio-tagged FGF1 (FGF1-lumio) to a purified ECD of FGFR2 without the Fc-tag (FGFR2^∂123), by measuring the tumbling speed as a parameter of anisotropy. When FGFR2^∂123 was added to FGF1-lumio, the tumbling speed of the ligand/receptor complex was slower than of FGF-lumio alone because of its larger size. […]

FGFR3^∂23 = biological target: T2, FGFR3^∂23 (Homo sapiens, UniProt P22607); experiment: isothermal titration calorimetry (ITC), FGFR3; type: binding
T2 construct: two ECD fragments, FGFR2^∂23 (consisting of domain D2 and 3) and FGFR3^∂23; made in house

HUVEC = HUVEC proliferation; type: cell-based, human; conditions: FGFR1β3c-driven; ATP content after 3 days
Experimental: Confluent HUVEC cells are harvested and 5 10^4 cells in 100 μl RPMI 1640 (Invitrogen, 32404-014) with 0.5% FCS (Hyclone, SH30070.03), 2 mM glutamine, MEM non-essential amino-acid 1× (Gibco, 11140-035), MEM sodium pyruvate 1× (Gibco, 11360-039) are seeded per well in 96-well collagen 1-coated plates (Beckton Dickinson, 354650) overnight. Then, medium is removed and replace by 50 μl of medium that contains 2×FGF2 (R&D, 234-FSE-025), FGF4 (R&D, 235-F4-025) or FGF-19 (in house produced) and 50 μl of 2×SSR (200 or 600 nM). Cells were incubated in CO2 chamber at 37° C. for 3 days and proliferation is evaluated by quantifying ATP content with 100 μl of “Cell Titer Glo Luminescent cell viability” kit (Promega, G7571).

FGFR2^∂23 = biological target: T3, FGFR2^∂23 (Homo sapiens, UniProt P21802); experiment: isothermal titration calorimetry (ITC), FGFR2; type: binding
T3 construct: FGFR2^∂23 (consisting of domain D2 and 3); made in house
Experimental: All calorimetric experiments were performed at 30° C. with a VP-ITC titration calorimeter (MicroCal Inc., Northampton, Mass.) as previously described^45. Titrations involved the addition of 10 μL aliquots of 1.25 mM SSR via a rotating stirrer-syringe to the solution cell containing 1.407 mL of the 10-20 μM interacting protein (i.e. FGFR2^∂123, FGFR2^∂23 and its described mutants and subdomains, FGFR3^∂123, FGF1, FGF2 and Follistatin (as negative control) at 4 min intervals. A constant stirring speed of 300 rpm was maintained and data were fitted to the standard noninteracting one site model supplied by MicroCal, with n fixed as 1.0. All measurements were performed in 10 mM HEPES pH7.2, 150 mM NaCl, and proteins were purified as previously described (Pellegrini et al., 2000). Mutagenesis was performed using the ‘site directed mutagenesis kit’ (Stratagene).

T3 sequence (P21802 148-366 limits assumed): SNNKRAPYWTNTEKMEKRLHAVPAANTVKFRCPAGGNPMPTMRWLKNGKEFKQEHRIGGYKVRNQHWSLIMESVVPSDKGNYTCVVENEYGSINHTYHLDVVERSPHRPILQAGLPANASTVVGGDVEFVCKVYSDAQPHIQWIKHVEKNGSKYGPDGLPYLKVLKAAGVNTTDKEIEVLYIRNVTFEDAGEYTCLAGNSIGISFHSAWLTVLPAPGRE
T2 sequence (P22607 145-365): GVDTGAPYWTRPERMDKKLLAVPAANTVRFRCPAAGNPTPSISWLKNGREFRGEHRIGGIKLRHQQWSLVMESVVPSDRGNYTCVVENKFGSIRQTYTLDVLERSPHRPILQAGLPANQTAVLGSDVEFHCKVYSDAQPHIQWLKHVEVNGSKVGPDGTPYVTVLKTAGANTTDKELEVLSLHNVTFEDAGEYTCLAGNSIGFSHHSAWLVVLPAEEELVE
T1 sequence (P21802 22-377 limits assumed): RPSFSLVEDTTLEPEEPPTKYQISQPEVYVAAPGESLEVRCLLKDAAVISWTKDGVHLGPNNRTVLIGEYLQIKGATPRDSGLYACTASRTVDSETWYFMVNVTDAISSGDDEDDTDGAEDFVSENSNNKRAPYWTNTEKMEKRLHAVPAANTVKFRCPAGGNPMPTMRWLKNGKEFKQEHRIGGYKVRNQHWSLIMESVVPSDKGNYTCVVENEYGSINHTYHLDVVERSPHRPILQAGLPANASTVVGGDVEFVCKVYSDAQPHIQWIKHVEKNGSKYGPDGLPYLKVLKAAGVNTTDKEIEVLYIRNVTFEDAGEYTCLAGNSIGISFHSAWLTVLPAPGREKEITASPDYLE

COc1c(C)c(C(=O)c2ccc(N)c(C(=O)[O-])c2)n2ccccc12.[Na+] [SSR] was tested, and the “FGF-induced FRS2 phosphorylation” value (FGFR2) was “only inhibits FRS2 pathway”, the “FGF-induced PLCγ phosphorylation” value (FGFR2) was “doesn't inhibit” and the “tumbling speed (anisotropy) of FGF1-lumio/FGFR2^∂123 complex” value (FGFR2^∂123) was “failed to alter the tumbling speed of the complex”. The “binding to FGFR3” value (FGFR3^∂23) was “bound”, the “FGF2-induced HUVEC proliferation” value (HUVEC) was “able to inhibit FGF2-induced HUVEC proliferation” and the “binding to FGFR2” value (FGFR2^∂23) was “bound”.
